According to PubChem BioAssay (NCI):
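All cell lines were grown in 96-well plates and treated with compound for 48 hours. Definition used: TGI = concentration required for complete inhibition of growth.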

What was measured:
Experiment in all cases: NCI tumour cell line growth inhibition, 48 h
KM20L2 colon = tested on: KM20L2 colon
LXFL 529 NSCLC = tested on: LXFL 529 NSCLC
M19-MEL melanoma = tested on: M19-MEL melanoma
DMS 273 small cell lung = tested on: DMS 273 small cell lung
DLD-1 colon = tested on: DLD-1 colon
P388/ADR leukemia = tested on: P388/ADR leukemia
P388 leukemia = tested on: P388 leukemia
SN12K1 renal = tested on: SN12K1 renal

SMILES | TGI (KM20L2 colon) [µM] | TGI (LXFL 529 NSCLC) [µM] | TGI (M19-MEL melanoma) [µM] | TGI (DMS 273 small cell lung) [µM] | TGI (DLD-1 colon) [µM] | TGI (P388/ADR leukemia) [µM] | TGI (P388 leukemia) [µM] | TGI (SN12K1 renal) [µM]
CC(C)C(=O)CC(c1ccc(Cl)cc1)N1N=C(C(C)C)CC1c1ccc(Cl)cc1 (configuration not stated) | > 100 | > 100 | > 55.6 |  |  |  |  | 
N#CCCN(CCC#N)c1ccc(/C=C(\NC(=O)c2cc([N+](=O)[O-])ccc2Cl)C(=O)Nc2ccccc2)cc1 | > 100 | > 100 | > 100 | > 100 | > 100 |  |  | 
Cc1[nH]c(=O)[nH]c(=O)c1/C=C/C(=O)NC(CO)CS(=O)Cc1ccccc1 (configuration not stated) | > 300 |  | > 300 | > 300 | > 300 | > 300 | > 300 | > 300
CCCn1cc2c(SC)nc(SC)nc2n1 |  |  |  | > 100 | > 100 |  |  | 
